Laboratory results reported in the supplement of paper PMC10307832.

What was measured:
Experiment in all cases: relative viability (nuclei count vs DMSO), 5 days (fraction); higher = more cells survive
NCI-H460 = tested on: NCI-H460
Method in brief: (§1)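 For relative viability, nuclei counts in treated wells were divided by those in vehicle wells. Lung cancer cell lines had been pin-tool dosed in 1536-well plates the day after seeding and cultured for 5 days, then fixed and stained in one step (final 0.05% Triton X-100, 1% formaldehyde, 1 ug/ml Hoechst) and imaged at 4×. Doses were one drug alone or a fixed anchor-drug dose plus five library-drug doses (not always all listed) in √10 steps, and values are duplicate-plate medians.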

LOU-NH91 = tested on: LOU-NH91
Method in brief: as §1

NCI-H1563 = tested on: NCI-H1563
Method in brief: as §1

CAL-12T = tested on: CAL-12T
Method in brief: as §1

NCI-H2023 = tested on: NCI-H2023
Method in brief: as §1

NCI-H2085 = tested on: NCI-H2085
Method in brief: as §1

BEN = tested on: BEN
Method in brief: as §1

SK-LU-1 = tested on: SK-LU-1
Method in brief: as §1

NCI-H1650 = tested on: NCI-H1650
Method in brief: as §1

COR-L23 = tested on: COR-L23
Method in brief: as §1

NCI-H1734 = tested on: NCI-H1734
Method in brief: as §1

NCI-H1437 = tested on: NCI-H1437
Method in brief: as §1

NCI-H1975 = tested on: NCI-H1975
Method in brief: as §1

NCI-H1793 = tested on: NCI-H1793
Method in brief: as §1

NCI-H1651 = tested on: NCI-H1651
Method in brief: as §1

NCI-H1355 = tested on: NCI-H1355
Method in brief: as §1

NCI-H441 = tested on: NCI-H441
Method in brief: as §1

NCI-H838 = tested on: NCI-H838
Method in brief: as §1

HCC-366 = tested on: HCC-366
Method in brief: as §1

LU99A = tested on: LU99A
Method in brief: as §1

NCI-H358 = tested on: NCI-H358
Method in brief: as §1

**Q.** How did the relative viability (NCI-H460; first compound 0.01 µM) turn out when O=c1cc(N2CCOCC2)oc2c(-c3cccc4c3sc3ccccc34)cccc12 + CS(=O)(=O)N1CCN(Cc2cc3nc(-c4cccc5[nH]ncc45)nc(N4CCOCC4)c3s2)CC1 [Pictilisib] (partner 1 µM) was run?
**A.** 0.403

**Q.** And the relative viability (NCI-H460; first compound 0.03162 µM)?
**A.** 0.342

**Q.** And the relative viability (NCI-H460; first compound 0.1 µM)?
**A.** 0.394

**Q.** And the relative viability (NCI-H460; first compound 0.3162 µM)?
**A.** 0.384

**Q.** What about the relative viability (NCI-H460; first compound 1 µM) of the same molecule?
**A.** 0.319

**Q.** And the relative viability (LOU-NH91; first compound 0.01 µM)?
**A.** 0.476

**Q.** And the relative viability (LOU-NH91; first compound 0.03162 µM)?
**A.** 0.533

**Q.** And the relative viability (LOU-NH91; first compound 0.1 µM)?
**A.** 0.525

**Q.** And the relative viability (LOU-NH91; first compound 0.3162 µM)?
**A.** 0.514

**Q.** What about the relative viability (LOU-NH91; first compound 1 µM) of the same molecule?
**A.** 0.531

**Q.** What about the relative viability (NCI-H1563; first compound 0.01 µM) of the same molecule?
**A.** 0.626

**Q.** What about the relative viability (NCI-H1563; first compound 0.03162 µM) of the same molecule?
**A.** 0.634

**Q.** And the relative viability (NCI-H1563; first compound 0.1 µM)?
**A.** 0.659

**Q.** What about the relative viability (NCI-H1563; first compound 0.3162 µM) of the same molecule?
**A.** 0.57

**Q.** And the relative viability (NCI-H1563; first compound 1 µM)?
**A.** 0.559

**Q.** What about the relative viability (CAL-12T; first compound 0.01 µM) of the same molecule?
**A.** 0.368

**Q.** And the relative viability (CAL-12T; first compound 0.1 µM)?
**A.** 0.485

**Q.** What about the relative viability (CAL-12T; first compound 0.3162 µM) of the same molecule?
**A.** 0.551

**Q.** What about the relative viability (CAL-12T; first compound 1 µM) of the same molecule?
**A.** 0.326

**Q.** And the relative viability (NCI-H2023; first compound 0.01 µM)?
**A.** 0.306

**Q.** What about the relative viability (NCI-H2023; first compound 0.03162 µM) of the same molecule?
**A.** 0.262

**Q.** And the relative viability (NCI-H2023; first compound 0.1 µM)?
**A.** 0.266

**Q.** What about the relative viability (NCI-H2023; first compound 0.3162 µM) of the same molecule?
**A.** 0.275

**Q.** And the relative viability (NCI-H2023; first compound 1 µM)?
**A.** 0.245

**Q.** And the relative viability (NCI-H2085; first compound 0.01 µM)?
**A.** 0.469

**Q.** And the relative viability (NCI-H2085; first compound 0.03162 µM)?
**A.** 0.467

**Q.** What about the relative viability (NCI-H2085; first compound 0.1 µM) of the same molecule?
**A.** 0.553

**Q.** What about the relative viability (NCI-H2085; first compound 0.3162 µM) of the same molecule?
**A.** 0.464

**Q.** And the relative viability (NCI-H2085; first compound 1 µM)?
**A.** 0.405

**Q.** What about the relative viability (BEN; first compound 0.01 µM) of the same molecule?
**A.** 0.593

**Q.** And the relative viability (BEN; first compound 0.03162 µM)?
**A.** 0.579

**Q.** What about the relative viability (BEN; first compound 0.1 µM) of the same molecule?
**A.** 0.593

**Q.** What about the relative viability (BEN; first compound 0.3162 µM) of the same molecule?
**A.** 0.655

**Q.** And the relative viability (BEN; first compound 1 µM)?
**A.** 0.535

**Q.** And the relative viability (SK-LU-1; first compound 0.01 µM)?
**A.** 0.609

**Q.** And the relative viability (SK-LU-1; first compound 0.03162 µM)?
**A.** 0.604

**Q.** And the relative viability (SK-LU-1; first compound 0.1 µM)?
**A.** 0.527

**Q.** What about the relative viability (SK-LU-1; first compound 0.3162 µM) of the same molecule?
**A.** 0.481

**Q.** What about the relative viability (SK-LU-1; first compound 1 µM) of the same molecule?
**A.** 0.587

**Q.** And the relative viability (NCI-H1650; first compound 0.03162 µM)?
**A.** 0.549

**Q.** And the relative viability (NCI-H1650; first compound 0.1 µM)?
**A.** 0.56

**Q.** What about the relative viability (NCI-H1650; first compound 0.3162 µM) of the same molecule?
**A.** 0.504

**Q.** What about the relative viability (NCI-H1650; first compound 1 µM) of the same molecule?
**A.** 0.514

**Q.** And the relative viability (COR-L23; first compound 0.01 µM)?
**A.** 0.765

**Q.** What about the relative viability (COR-L23; first compound 0.03162 µM) of the same molecule?
**A.** 0.855

**Q.** What about the relative viability (COR-L23; first compound 0.1 µM) of the same molecule?
**A.** 0.846

**Q.** And the relative viability (COR-L23; first compound 0.3162 µM)?
**A.** 0.757

**Q.** And the relative viability (COR-L23; first compound 1 µM)?
**A.** 0.778

**Q.** What about the relative viability (NCI-H1734; first compound 0.01 µM) of the same molecule?
**A.** 0.445

**Q.** What about the relative viability (NCI-H1734; first compound 0.03162 µM) of the same molecule?
**A.** 0.472

**Q.** And the relative viability (NCI-H1734; first compound 0.1 µM)?
**A.** 0.452

**Q.** What about the relative viability (NCI-H1734; first compound 0.3162 µM) of the same molecule?
**A.** 0.504

**Q.** And the relative viability (NCI-H1734; first compound 1 µM)?
**A.** 0.446

**Q.** And the relative viability (NCI-H1437; first compound 0.01 µM)?
**A.** 0.455

**Q.** What about the relative viability (NCI-H1437; first compound 0.03162 µM) of the same molecule?
**A.** 0.456

**Q.** And the relative viability (NCI-H1437; first compound 0.1 µM)?
**A.** 0.542

**Q.** What about the relative viability (NCI-H1437; first compound 0.3162 µM) of the same molecule?
**A.** 0.478

**Q.** What about the relative viability (NCI-H1437; first compound 1 µM) of the same molecule?
**A.** 0.412

**Q.** What about the relative viability (NCI-H1975; first compound 0.01 µM) of the same molecule?
**A.** 0.272

**Q.** And the relative viability (NCI-H1975; first compound 0.03162 µM)?
**A.** 0.307

**Q.** And the relative viability (NCI-H1975; first compound 0.1 µM)?
**A.** 0.287

**Q.** What about the relative viability (NCI-H1975; first compound 0.3162 µM) of the same molecule?
**A.** 0.305

**Q.** What about the relative viability (NCI-H1975; first compound 1 µM) of the same molecule?
**A.** 0.28

**Q.** And the relative viability (NCI-H1793; first compound 0.01 µM)?
**A.** 0.289

**Q.** What about the relative viability (NCI-H1793; first compound 0.03162 µM) of the same molecule?
**A.** 0.348

**Q.** And the relative viability (NCI-H1793; first compound 0.1 µM)?
**A.** 0.336

**Q.** And the relative viability (NCI-H1793; first compound 0.3162 µM)?
**A.** 0.335

**Q.** What about the relative viability (NCI-H1793; first compound 1 µM) of the same molecule?
**A.** 0.35

**Q.** What about the relative viability (NCI-H1651; first compound 0.01 µM) of the same molecule?
**A.** 0.451

**Q.** And the relative viability (NCI-H1651; first compound 0.03162 µM)?
**A.** 0.642

**Q.** What about the relative viability (NCI-H1651; first compound 0.1 µM) of the same molecule?
**A.** 0.636

**Q.** What about the relative viability (NCI-H1651; first compound 0.3162 µM) of the same molecule?
**A.** 0.615

**Q.** What about the relative viability (NCI-H1651; first compound 1 µM) of the same molecule?
**A.** 0.56

**Q.** What about the relative viability (NCI-H1355; first compound 0.01 µM) of the same molecule?
**A.** 0.486

**Q.** What about the relative viability (NCI-H1355; first compound 0.03162 µM) of the same molecule?
**A.** 0.502

**Q.** What about the relative viability (NCI-H1355; first compound 0.3162 µM) of the same molecule?
**A.** 0.429

**Q.** And the relative viability (NCI-H1355; first compound 1 µM)?
**A.** 0.419

**Q.** And the relative viability (NCI-H441; first compound 0.01 µM)?
**A.** 0.561

**Q.** And the relative viability (NCI-H441; first compound 0.03162 µM)?
**A.** 0.483

**Q.** What about the relative viability (NCI-H441; first compound 0.1 µM) of the same molecule?
**A.** 0.487

**Q.** And the relative viability (NCI-H441; first compound 0.3162 µM)?
**A.** 0.438

**Q.** And the relative viability (NCI-H441; first compound 1 µM)?
**A.** 0.579

**Q.** What about the relative viability (NCI-H838; first compound 0.01 µM) of the same molecule?
**A.** 0.427

**Q.** And the relative viability (NCI-H838; first compound 0.03162 µM)?
**A.** 0.389

**Q.** And the relative viability (NCI-H838; first compound 0.1 µM)?
**A.** 0.434

**Q.** What about the relative viability (NCI-H838; first compound 0.3162 µM) of the same molecule?
**A.** 0.472

**Q.** What about the relative viability (NCI-H838; first compound 1 µM) of the same molecule?
**A.** 0.388

**Q.** What about the relative viability (HCC-366; first compound 0.01 µM) of the same molecule?
**A.** 0.197

**Q.** And the relative viability (HCC-366; first compound 0.03162 µM)?
**A.** 0.154

**Q.** What about the relative viability (HCC-366; first compound 0.1 µM) of the same molecule?
**A.** 0.1

**Q.** And the relative viability (HCC-366; first compound 0.3162 µM)?
**A.** 0.154

**Q.** What about the relative viability (HCC-366; first compound 1 µM) of the same molecule?
**A.** 0.137

**Q.** What about the relative viability (LU99A; first compound 0.01 µM) of the same molecule?
**A.** 0.384

**Q.** What about the relative viability (LU99A; first compound 0.03162 µM) of the same molecule?
**A.** 0.3

**Q.** What about the relative viability (LU99A; first compound 0.1 µM) of the same molecule?
**A.** 0.333

**Q.** What about the relative viability (LU99A; first compound 0.3162 µM) of the same molecule?
**A.** 0.367

**Q.** What about the relative viability (LU99A; first compound 1 µM) of the same molecule?
**A.** 0.343

**Q.** What about the relative viability (NCI-H358; first compound 0.01 µM) of the same molecule?
**A.** 0.339

**Q.** And the relative viability (NCI-H358; first compound 0.03162 µM)?
**A.** 0.353

**Q.** And the relative viability (NCI-H358; first compound 0.1 µM)?
**A.** 0.338

**Q.** What about the relative viability (NCI-H358; first compound 0.3162 µM) of the same molecule?
**A.** 0.307

**Q.** And the relative viability (NCI-H358; first compound 1 µM)?
**A.** 0.318
